Reference: US20230174556A1, “COMPOUNDS AS PROTEIN KINASE INHIBITORS” (Fochon Biosciences, Ltd., priority 2020, published 2023)

tested on: OCI-LY10 (PI3Kδ dependent) cells; experiment: OCI-LY10 cell proliferation assay (MTS); format: cell-based; settings: Homo sapiens, OCI-Ly10, 72 h, inhibition of OCI-LY10 cells proliferation, 72 h incubation, MTS readout at 490 nm
Method: MTS testing kit was purchased from Promega (Madison, WI, USA). The RPMI-1640, Fetal bovine serum and Penicillin-Streptomycin were purchased from BI (Biological Industries, Beit Haemek, Israel). Dimethyl sulfoxide (DMSO) was purchased from Sigma (St. Louis., MO, USA). OCI-LY10 cells were cultured in RPMI1640 supplemented with Penicillin-Streptomycin and 10% FBS.
To investigate whether a compound is able to inhibit the activity of PI3Kδ in cells, a mechanism-based assay using OCI-LY10 (PI3Kδ dependent) cells was developed. In this assay, inhibition of PI3Kδ was detected by the inhibition of OCI-LY10 cells proliferation. Cells were plated into 96-well plates at a density of 10000 cells/well. Plates were incubated at 37° C., with 5 % CO2 for 4 h. Compounds were serially diluted and added to the plates with the final compound concentrations as 10000, 3333.3, 1111.1, […], 123.5, 41.2, 13.7, 4.6 and 1.5 nM. Plates were incubated at 37° C., with 5 % CO2 for 72 h. 20 µl MTS was added into each well and the plates were incubated at 37° C., with 5 % CO2 for exactly 2 h. The absorbance was measured by a microplate reader at 490 nm. IC50 was calculated using GraphPad Prism 5.0 software.

In the case of `COc1ncc(-c2nn([C@@H](C)c3cc4scc(Cl)n4c(=O)c3-c3cccc(F)c3)c3ncnc(N)c23)cc1NS(C)(=O)=O` [Example 79, (S)-N-(5-(4-amino-1-(1-(3-chloro-6-(3-fluorophenyl)-5-oxo-5H-thiazolo[3,2-a]pyridin-7-yl)ethyl)-1H-pyrazolo[3,4-d]pyrimidin-3-yl)-2-methoxypyridin-3-yl)methanesulfonamide], the IC50 is reported as 2 nM.

same assay, conditions: inhibition of OCI-LY10 cells proliferation, 72 h incubation, MTS readout at 490 nm

First: COc1ncc(-c2nn([C@@H](C)c3cc4scc(C)n4c(=O)c3-c3cccc(F)c3)c3ncnc(N)c23)cc1NS(C)(=O)=O [Example 77, (S)-N-(5-(4-amino-1-(1-(6-(3-fluorophenyl)-3-methyl-5-oxo-5H-thiazolo[3,2-a]pyridin-7-yl)ethyl)-1H-pyrazolo[3,4-d]pyrimidin-3-y1)-2-methoxypyridin-3-yl)methanesulfonamide]
Second: COc1ncc(-c2nn([C@@H](C)c3cc4scc(Cl)n4c(=O)c3-c3ccccc3)c3ncnc(N)c23)cc1NS(C)(=O)=O [Example 78, (S)-N-(5-(4-amino-1-(1-(3-chloro-5-oxo-6-phenyl-5H-thiazolo[3,2-α]pyridin-7-yl)ethyl)-1H-pyrazolo[3,4-d]pyrimidin-3-yl)-2-methoxypyridin-3-yl)metha nesulfonamide]
The IC50 of the first is 3-fold lower: 1 nM for the first, 3 nM for the second. The first is the more potent here.

`Cc1csc2cc([C@H](C)n3nc(-c4ccc(OC(C)C)c(C#N)c4)c4c(N)ncnc43)c(-c3ccccc3)c(=O)n12` [Example 82, (S)-5-(4-amino-1-(1-(3-methyl-5-oxo-6-phenyl-5H-thiazolo[3,2-α]pyridin-7-yl)ethyl)-1H-pyrazolo[3,4-d]pyrimidin-3-yl)-2-isopropoxybenzonitrile] and `CC(C)Oc1ccc(-c2nn([C@@H](C)c3cc4scc(Cl)n4c(=O)c3-c3ccccc3)c3ncnc(N)c23)cc1C#N` [Example 84, (S)-5-(4-amino-l-(1-(3-chloro-5-oxo-6-phenyl-5H-thiazolo[3,2-α]pyridin-7-yl)ethyl)-1H-pyrazolo[3,4-d]pyrimidin-3-yl)-2-isopropoxy benzonitrile] are the same in IC50: 1 nM for the first, 1 nM for the second.

First: Cc1csc2cc([C@H](C)n3nc(-c4ccc(OC(C)C)c(C#N)c4)c4c(N)ncnc43)c(-c3cccc(F)c3)c(=O)n12 [Example 83, (S)-5-(4-amino-1-(1-(6-(3-fluorophenyl)-3-methyl-5-oxo-5H-thiazolo[3,2-α]pyridin-7-yl)ethyl)-1H-pyrazolo[3,4-d]pyrimidin-3-yl)-2-isopropoxybenzonitrile]
Second: CC(C)Oc1ccc(-c2nn([C@@H](C)c3cc4scc(Cl)n4c(=O)c3-c3cccc(F)c3)c3ncnc(N)c23)cc1C#N [Example 85, (S)-5-(4-amino-1-(1-(3-chloro-6-(3-fluorophenyl)-5-oxo-5H-thiazolo[3,2-α]pyridin-7-yl)ethyl)-1H-pyrazolo[3,4-d]pyrimidin-3-yl)-2-isopropoxybenzonitrile]
The IC50 of the first is 8-fold lower: 1 nM for the first, 8 nM for the second.

First: CC(C)Oc1ccc(-c2nn([C@@H](C)c3cc4scc(Cl)n4c(=O)c3-c3ccccc3)c3ncnc(N)c23)cn1 [Example 86, (S)-7-(1-(4-amino-3-(6-isopropoxypyridin-3-yl)-1H-pyrazolo[3,4-d]pyrimidin-1-yl)ethyl)-3-chloro-6-phenyl-5H-thia zolo [3,2-α] pyridin-5-one]
Second: CC(C)Oc1ccc(-c2nn([C@@H](C)c3cc4scc(Cl)n4c(=O)c3-c3cccc(F)c3)c3ncnc(N)c23)cn1 [Example 87, (S)-7-(1-(4-amino-3-(6-isopropoxypyridin-3-yl)-1H-pyrazolo[3,4-d]pyrimidin-1-yl)ethyl)-3-chloro-6-(3-fluoropheny 1)-5H-thiazol[3,2-α]pyridin-5-one]
The IC50 of the first is 32-fold lower: 2 nM for the first, 64 nM for the second. The first is the more potent here.

`Cc1csc2cc([C@H](C)n3nc(-c4cnc(OC(C)C)nc4)c4c(N)ncnc43)c(-c3ccccc3)c(=O)n12` [Example 88, (S)-7-(1-(4-amino-3-(2-isopropoxypyrimidin-5-yl)-1H-pyrazolo[3,4-d]pyrimidin-1-yl)ethyl)-3-methyl-6-phenyl-5H-thiazolo[3,2-α]pyridin-5-one] was tested, and the IC50 was 34 nM.
